Values joined by “and” are separate entries in the source; they are usually repeats but may differ in a detail not shown here. Identical values can stand only once.
Test: xn = mol fraction of the nth substance listed
Details: Constant-volume piezometry

CCCCC [pentane] + CCCO
Details	mass density
473.15 K, 3570 kPa, Gas, x1 = 0.9	221.23 kg/m3
473.15 K, 3581 kPa, Fluid (supercritical or subcritical phases), x1 = 0.9	202.87 kg/m3
473.15 K, 3589 kPa, Fluid (supercritical or subcritical phases), x1 = 0.9	221.23 kg/m3
473.15 K, 3592 kPa, Gas, x1 = 0.8	140.64 kg/m3
473.15 K, 3596 kPa, Fluid (supercritical or subcritical phases), x1 = 0.9	233.64 kg/m3 and 237.11 kg/m3
473.15 K, 3598 kPa, Fluid (supercritical or subcritical phases), x1 = 0.9	241.52 kg/m3
473.15 K, 3600 kPa, Fluid (supercritical or subcritical phases), x1 = 0.9	244.84 kg/m3
473.15 K, 3614 kPa, Fluid (supercritical or subcritical phases), x1 = 0.9	282.71 kg/m3
473.15 K, 3634 kPa, Fluid (supercritical or subcritical phases), x1 = 0.9	302.44 kg/m3
473.15 K, 3679 kPa, Fluid (supercritical or subcritical phases), x1 = 0.9	313.12 kg/m3
473.15 K, 3689 kPa, Fluid (supercritical or subcritical phases), x1 = 0.8	316.17 kg/m3
473.15 K, 3767 kPa, Liquid, x1 = 0.8	311.76 kg/m3
473.15 K, 3769 kPa, Liquid, x1 = 0.8	312.18 kg/m3
473.15 K, 3862 kPa, Liquid, x1 = 0.8	334.71 kg/m3
473.15 K, 3867 kPa, Fluid (supercritical or subcritical phases), x1 = 0.9	334.89 kg/m3
473.15 K, 4019 kPa, Liquid, x1 = 0.8	346.27 kg/m3
473.15 K, 4251 kPa, Fluid (supercritical or subcritical phases), x1 = 0.9	355.05 kg/m3
473.15 K, 4349 kPa, Liquid, x1 = 0.5	442.18 kg/m3
473.15 K, 4439 kPa, Liquid, x1 = 0.8	362.89 kg/m3
473.15 K, 5156 kPa, Liquid, x1 = 0.5	452.53 kg/m3
473.15 K, 5785 kPa, Liquid, x1 = 0.5	459.62 kg/m3
473.15 K, 6747 kPa, Fluid (supercritical or subcritical phases), x1 = 0.9	408.4 kg/m3
473.15 K, 6942 kPa, Liquid, x1 = 0.5	469.49 kg/m3
473.15 K, 7120 kPa, Liquid, x1 = 0.8	419.36 kg/m3
473.15 K, 7219 kPa, Liquid, x1 = 0.2	548.71 kg/m3
473.15 K, 13549 kPa, Liquid, x1 = 0.5	508.06 kg/m3
473.15 K, 13806 kPa, Liquid, x1 = 0.8	468.05 kg/m3
473.15 K, 16233 kPa, Liquid, x1 = 0.5	520.92 kg/m3
473.15 K, 16852 kPa, Liquid, x1 = 0.2	583.19 kg/m3
473.15 K, 20923 kPa, Liquid, x1 = 0.8	497.59 kg/m3
473.15 K, 22686 kPa, Liquid, x1 = 0.2	596.85 kg/m3
473.15 K, 24900 kPa, Liquid, x1 = 0.5	549.88 kg/m3
473.15 K, 30448 kPa, Liquid, x1 = 0.8	522.21 kg/m3
473.15 K, 32094 kPa, Liquid, x1 = 0.2	616.32 kg/m3
473.15 K, 38268 kPa, Liquid, x1 = 0.5	576.1 kg/m3
474.15 K, 3452 kPa, Liquid, x1 = 0.5	418.33 kg/m3
474.15 K, 3457 kPa, Liquid, x1 = 0.5	418.33 kg/m3
474.15 K, 3855 kPa, Liquid, x1 = 0.8	311.75 kg/m3
474.15 K, 3858 kPa, Liquid, x1 = 0.8	312.16 kg/m3
475.15 K, 3641 kPa, Liquid, x1 = 0.5	418.31 kg/m3
475.15 K, 3789 kPa, Fluid (supercritical or subcritical phases), x1 = 0.9	302.41 kg/m3
475.15 K, 3944 kPa, Liquid, x1 = 0.8	312.15 kg/m3
477.15 K, 3017 kPa, Liquid, x1 = 0.2	510.96 kg/m3
478.15 K, 3181 kPa, Gas, x1 = 0.5	89.1 kg/m3
478.15 K, 3700 kPa, Liquid, x1 = 0.5	399.08 kg/m3
478.15 K, 3850 kPa, Fluid (supercritical or subcritical phases), x1 = 0.8	214.32 kg/m3
478.15 K, 3857 kPa, Fluid (supercritical or subcritical phases), x1 = 0.8	220.1 kg/m3
478.15 K, 3944 kPa, Fluid (supercritical or subcritical phases), x1 = 0.8	273.15 kg/m3
480.15 K, 3218 kPa, Gas, x1 = 0.5	89.09 kg/m3
480.15 K, 3965 kPa, Fluid (supercritical or subcritical phases), x1 = 0.8	220.08 kg/m3
480.15 K, 4198 kPa, Fluid (supercritical or subcritical phases), x1 = 0.9	302.34 kg/m3
482.15 K, 3886 kPa, Liquid, x1 = 0.5	384.8 kg/m3
483.15 K, 867 kPa, Gas, x1 = 0.5	15.55 kg/m3
483.15 K, 1195 kPa, Gas, x1 = 0.8	22.57 kg/m3
483.15 K, 1378 kPa, Gas, x1 = 0.2	24.98 kg/m3
483.15 K, 1547 kPa, Gas, x1 = 0.5	30.04 kg/m3
483.15 K, 1753 kPa, Gas, x1 = 0.8	36.76 kg/m3
483.15 K, 2012 kPa, Gas, x1 = 0.5	40.56 kg/m3
483.15 K, 2335 kPa, Gas, x1 = 0.5	51.19 kg/m3
483.15 K, 2505 kPa, Gas, x1 = 0.8	58.52 kg/m3
483.15 K, 2571 kPa, Gas, x1 = 0.2	53.11 kg/m3
483.15 K, 2845 kPa, Gas, x1 = 0.5	67.65 kg/m3
483.15 K, 2913 kPa, Gas, x1 = 0.8	73.93 kg/m3
483.15 K, 2963 kPa, Gas, x1 = 0.5	72.74 kg/m3
483.15 K, 3039 kPa, Gas, x1 = 0.9	83.54 kg/m3

Liquid
Details	mass density [kg/m3]
473.15 K, x1 = 0.5	418.35
474.15 K, x1 = 0.8	299.93
475.25 K, x1 = 0.8	289.08
475.65 K, x1 = 0.8	273.18
475.95 K, x1 = 0.8	259.17
476.15 K, x1 = 0.8	245.91
476.35 K, x1 = 0.2	510.98
476.45 K, x1 = 0.5	399.12
482.15 K, x1 = 0.5	373.68
